Assay results as given in patent publication US20220380368A1, “SPIROCYCLIC ANDROGEN RECEPTOR PROTEIN DEGRADERS” (THE REGENTS OF THE UNIVERSITY OF MICHIGAN, priority 2019, published 2022).
Like-named read-outs stand apart in the source and are kept apart here.

Tests used:
[1] = target: T1, AR protein (Homo sapiens, UniProt P10275); assay: Western blotting analysis of AR protein levels in VCaP cells, band quantification, DC50/DC90; assay type: cell-based
T1 construct: endogenous in cells; host or cells: VCaP
T1 sequence (P10275 1-920): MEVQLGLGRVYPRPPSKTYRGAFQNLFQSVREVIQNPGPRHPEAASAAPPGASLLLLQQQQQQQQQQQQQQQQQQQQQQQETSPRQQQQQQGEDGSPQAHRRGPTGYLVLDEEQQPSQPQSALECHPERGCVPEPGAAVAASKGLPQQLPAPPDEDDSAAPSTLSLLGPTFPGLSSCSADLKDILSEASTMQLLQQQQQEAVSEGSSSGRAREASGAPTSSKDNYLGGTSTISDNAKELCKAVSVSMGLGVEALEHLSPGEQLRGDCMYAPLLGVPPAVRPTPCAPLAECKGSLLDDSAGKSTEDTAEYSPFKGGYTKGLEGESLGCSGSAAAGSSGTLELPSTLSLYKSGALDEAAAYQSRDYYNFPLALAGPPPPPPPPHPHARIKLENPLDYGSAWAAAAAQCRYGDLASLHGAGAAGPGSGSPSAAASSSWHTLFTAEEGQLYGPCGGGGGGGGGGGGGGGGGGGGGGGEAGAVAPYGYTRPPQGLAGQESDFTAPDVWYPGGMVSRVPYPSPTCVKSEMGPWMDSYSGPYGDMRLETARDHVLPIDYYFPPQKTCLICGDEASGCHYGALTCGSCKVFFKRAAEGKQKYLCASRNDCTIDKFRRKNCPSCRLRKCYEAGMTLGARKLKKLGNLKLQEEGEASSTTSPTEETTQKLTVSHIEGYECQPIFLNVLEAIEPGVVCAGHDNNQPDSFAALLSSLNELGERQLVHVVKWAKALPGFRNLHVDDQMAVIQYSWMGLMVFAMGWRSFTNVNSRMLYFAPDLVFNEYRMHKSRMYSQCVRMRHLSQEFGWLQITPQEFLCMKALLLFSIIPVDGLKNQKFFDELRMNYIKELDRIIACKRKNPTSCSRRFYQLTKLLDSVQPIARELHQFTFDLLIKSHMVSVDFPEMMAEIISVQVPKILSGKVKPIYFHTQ
Method: The appropriate cell line, e.g., prostate cancer LNCaP, Vcap, or 22RV1 cell line, was treated with Compounds of the Disclosure as indicated. The treated cells were lysed with RIPA buffer. […] GAPDH was used as a loading control.
Bands were quantified with ImageJ software. The relative numbers of each band obtained from normalization with its corresponding GAPDH level were compared with Prism 8 software. The DC50 values were produced from Prism 8, and the DC90 values were calculated with an equation=Bottom+(Top−Bottom)/(1+10^((Log EC50−X)*HillSlope) based on DC50 and Hillslope values.

[2] = Mouse PK studies after oral and IV dosing; assay type: in vivo; settings: for F: PO 3 mg/kg vs IV 1 mg/kg; for AUC(0-t) / clearance / half-life / Vd / Cmax / Tmax: in vivo; for clearance: read-out: IV Cl (converted); for Vd: read-out: IV VSS
Method: The pharmacokinetics of representative Compounds of the Disclosure were determined after oral and IV dosing at the concentrations indicated in mouse (Table 7). […] The vehicles used in these studies are either (i) 10% PEG400+90% PBS (adjusted to pH to 8.0 by 0.5 N NaOH); or (ii) 100% PEG200.

[3] = VCaP cells, Table 6; read-out: VCaP DC50
[4] = iv, 1 mg/kg, IV, dose 1 mg/kg, read-out: IV AUC(0 − t)
[5] = iv, 1 mg/kg, IV, dose 1 mg/kg, read-out: IV T1/2 (converted)
[6] = po, 3 mg/kg, PO, dose 3 mg/kg, read-out: PO AUC(0 − t)
[7] = po, 3 mg/kg, PO, dose 3 mg/kg, read-out: PO T1/2 (converted)

| Structure (SMILES) | DC50 [1, 3] [nM] | F [2] [%] | AUC(0-t) [2, 4] [ng·h/mL] | clearance ([2]; iv, 1 mg/kg, IV, dose 1 mg/kg) [mL/min/kg] | half-life [2, 5] [h] | Vd ([2]; iv, 1 mg/kg, IV, dose 1 mg/kg) [L/kg] | Cmax ([2]; po, 3 mg/kg) [ng/mL] | Tmax ([2]; po, 3 mg/kg) [h] | AUC(0-t) [2, 6] [ng·h/mL] | half-life [2, 7] [h] | DC50 ([1]; read-out: VCaP DC50; VCaP cells, Table 6) [nM] |
| --- | --- | --- | --- | --- | --- | --- | --- | --- | --- | --- | --- |
| C[C@H]1CC2(CCN(c3ccc(C(=O)N4CCN(C5CCN(c6ccc7c(c6)C(=O)N(C6CCC(=O)NC6=O)C7=O)CC5)CC4)cc3F)CC2)CN1c1ccc(C#N)c(Cl)c1 (stereo partly drawn) [Cpd. No. 521, 2-chloro-4-((3S)-8-(4-(4-(1-(2-(2,6-dioxopiperidin-3-yl)-1,3-dioxoisoindolin-5-yl)piperidin-4-yl)piperazine-1-carbonyl)-2-fluorophenyl)-3-methyl-2,8-diazaspiro[4.5]decan-2-yl)benzonitrile] | < 1 | 30 | 2990 | 5 | 8.2 | 3.1 | 344 | 1.7 | 2730 | 7 | – |
| C[C@H]1CC2(CCN(c3cnc(C(=O)N4CCC(CN5CCN(c6cc7c(cc6F)C(=O)N(C6CCC(=O)NC6=O)C7=O)CC5)CC4)cn3)CC2)CN1c1ccc(C#N)c(Cl)c1 (stereo partly drawn) [Cpd. No. 493, 2-chloro-4-((3S)-8-(5-(4-((4-(2-(2,6-dioxopiperidin-3-yl)-6-fluoro-1,3-dioxoisoindolin-5-yl)piperazin-1-yl)methyl)piperidine-1-carbonyl)pyrazin-2-yl)-3-methyl-2,8-diazaspiro[4.5]decan-2-yl)benzonitrile] | 1 to 10 | 25 | 840 | 20.3 | 4.9 | 4.12 | 224 | 0.7 | 627 | 4.8 | – |
| C[C@H]1CC2(CCN(c3ccc(C(=O)N4CCC(N5CCN(c6cc7c(cc6F)C(=O)N(C6CCC(=O)NC6=O)C7=O)CC5)CC4)nn3)CC2)CN1c1ccc(C#N)c(Cl)c1 (stereo partly drawn) [Cpd. No. 500, 2-chloro-4-((3S)-8-(6-(4-(4-(2-(2,6-dioxopiperidin-3-yl)-6-fluoro-1,3-dioxoisoindolin-5-yl)piperazin-1-yl)piperidine-1-carbonyl)pyridazin-3-yl)-3-methyl-2,8-diazaspiro[4.5]decan-2-yl)benzonitrile] | 1 to 10 | 60 | 1880 | 7.83 | 2.6 | 1.53 | 711 | 1.7 | 3750 | 2 | – |
| C[C@H]1CC2(CCN(c3ccc(C(=O)N4CCC(CN5CCN(c6cc7c(cc6F)C(=O)N(C6CCC(=O)NC6=O)C7=O)CC5)CC4)nn3)CC2)CN1c1ccc(C#N)c(Cl)c1 (stereo partly drawn) [Cpd. No. 490, 2-chloro-4-((3S)-8-(6-(4-((4-(2-(2,6-dioxopiperidin-3-yl)-6-fluoro-1,3-dioxoisoindolin-5-yl)piperazin-1-yl)methyl)piperidine-1-carbonyl)pyridazin-3-yl)-3-methyl-2,8-diazaspiro[4.5]decan-2-yl)benzonitrile] | 1 to 10 | 25 | 4920 | 3 | 8.7 | 1.74 | 639 | 1 | 3730 | 7.1 | – |
| C[C@H]1CC2(CCN(c3ccc(C(=O)N4CCN(CC5CN(c6cc7c(cc6F)C(=O)N(C6CCC(=O)NC6=O)C7=O)C5)CC4)nn3)CC2)CN1c1ccc(C#N)c(Cl)c1 (stereo partly drawn) [Cpd. No. 485, 2-chloro-4-((3S)-8-(6-(4-((1-(2-(2,6-dioxopiperidin-3-yl)-6-fluoro-1,3-dioxoisoindolin-5-yl)azetidin-3-yl)methyl)piperazine-1-carbonyl)pyridazin-3-yl)-3-methyl-2,8-diazaspiro[4.5]decan-2-yl)benzonitrile] | 1 to 10 | 73 | 2350 | 6.5 | 9.8 | 2.95 | 1100 | 1 | 5150 | 7.2 | – |
| C[C@H]1CC2(CCN(c3cnc(C(=O)N4CCC(N5CCN(c6ccc7c(c6)C(=O)N(C6CCC(=O)NC6=O)C7=O)CC5)CC4)cn3)CC2)CN1c1ccc(C#N)c(Cl)c1 (stereo partly drawn) [Cpd. No. 497, 2-chloro-4-((3S)-8-(5-(4-(4-(2-(2,6-dioxopiperidin-3-yl)-1,3-dioxoisoindolin-5-yl)piperazin-1-yl)piperidine-1-carbonyl)pyrazin-2-yl)-3-methyl-2,8-diazaspiro[4.5]decan-2-yl)benzonitrile] | < 1 | 30 | 849 | 18.8 | 2.7 | 2 | 336 | 0.5 | 760 | 2 | – |
| C[C@H]1CC2(CCN(c3ccc(C(=O)N4CCN(CC5CCN(c6ccc7c(c6)C(=O)N(C6CCC(=O)NC6=O)C7=O)CC5)CC4)nn3)CC2)CN1c1ccc(C#N)c(Cl)c1 (stereo partly drawn) [Cpd. No. 491, 2-chloro-4-((3S)-8-(6-(4-((1-(2-(2,6-dioxopiperidin-3-yl)-1,3-dioxoisoindolin-5-yl)piperidin-4-yl)methyl)piperazine-1-carbonyl)pyridazin-3-yl)-3-methyl-2,8-diazaspiro[4.5]decan-2-yl)benzonitrile] | 1 to 10 | 34 | 2640 | 6 | 7.7 | 2.09 | 789 | 1 | 2710 | 5.7 | – |
| C[C@H]1CC2(CCN(c3ccc(C(=O)N4CCC(CN5CCN(c6ccc7c(c6)C(=O)N(C6CCC(=O)NC6=O)C7=O)CC5)CC4)nn3)CC2)CN1c1ccc(C#N)c(Cl)c1 (stereo partly drawn) [Cpd. No. 489, 2-chloro-4-((3S)-8-(6-(4-((4-(2-(2,6-dioxopiperidin-3-yl)-1,3-dioxoisoindolin-5-yl)piperazin-1-yl)methyl)piperidine-1-carbonyl)pyridazin-3-yl)-3-methyl-2,8-diazaspiro[4.5]decan-2-yl)benzonitrile] | 1 to 10 | 37 | 2140 | 7.33 | 7.45 | 2.72 | 477 | 1 | 2390 | 7.5 | – |
| C[C@H]1CC2(CCN(c3ccc(C(=O)N4CCN(C5CCN(c6ccc7c(c6)C(=O)N(C6CCC(=O)NC6=O)C7=O)CC5)CC4)cc3F)CC2)CN1c1ccc(C#N)c(Cl)c1 (stereo partly drawn) [Cpd. No. 519, 2-chloro-4-((3S)-8-(4-(4-(1-(2-(2,6-dioxopiperidin-3-yl)-1,3-dioxoisoindolin-5-yl)piperidin-4-yl)piperazine-1-carbonyl)-2-fluorophenyl)-3-methyl-2,8-diazaspiro[4.5]decan-2-yl)benzonitrile] | < 1 | – | – | – | – | – | – | – | – | – | – |
| C[C@H]1CC2(CCN(c3ccc(C(=O)N4CCN(C5CN(c6cc7c(cc6F)C(=O)N(C6CCC(=O)NC6=O)C7=O)C5)CC4)cn3)CC2)CN1c1ccc(C#N)c(Cl)c1 (stereo partly drawn) [Cpd. No. 505, 2-chloro-4-((3S)-8-(5-(4-(1-(2-(2,6-dioxopiperidin-3-yl)-6-fluoro-1,3-dioxoisoindolin-5-yl)azetidin-3-yl)piperazine-1-carbonyl)pyridin-2-yl)-3-methyl-2,8-diazaspiro[4.5]decan-2-yl)benzonitrile] | – | – | – | – | – | – | – | – | – | – | < 1 |
